Series [1] concerns the target TagK-TF^His6 (Bacillus licheniformis, UniProt Q65EY9). The series can be described thus: coupled assay LacD/TPI/G3PDH, NADH oxidation at […] nm. The class given is biochemical. The note with it: read-out: % residual activity at 10 mM.
Substrate in series [2]: O=C(COP(=O)(O)O)[C@@H](O)[C@@H](O)[C@H](O)CO
The series can be described thus: purified protein. The note with it: 2 mM ATP, 10 mM MgCl2, 50 mM Tris-HCl pH 8.0, 25 °C. The class given is biochemical, Bacillus licheniformis.

Take `O=P(O)(O)OC[C@H]1OC(O)(CO)[C@@H](O)[C@H]1O` (stereo partly drawn) [Tag-6P, D-tagatose-6-phosphate]: the remaining activity at 10000 µM in series [1] was 43%. Same read-out and setting: with `O=P(O)(O)OC[C@H]1OC(O)(CO)[C@@H](O)[C@@H]1O` (stereo partly drawn) [Fru-6P, D-fructose 6-phosphate] the figure was 69%.

B1: TagK-TF^His6 (Bacillus licheniformis DSM 13 = ATCC 14580) (protein)
chain: MIYTCTMNTAVDLFVETDELLPDVVNRTKDEDYQPNGKGVNISFMLKRLGLDNTALGFTGGFTGRFIENELLNEKIVTDFVEVEGISRINIFINSTREFKIVNKGPLISEARKQELINKIRQIPPGRFLFISGSLPRGVPDDMYLSLSEIAAENKLKLILDISSPVLLDCLSYHPYLIKPNEQELAAFFSRKKALSEEEIIHCGKELLDRGAERVLISRGKDGALYLDRQRTLKATAAKGKVVNTACAGDAMLAVFVGKQELGCSVPEALRHASAAGSLTAFSKGLGDVSKLDQTASQIQITHL
What is called Km is the concentration of substrate that gives half-maximal velocity. The kcat is the maximal rate divided by the concentration of active sites. For the molecule B1, in series [2], the Km was determined as 3.2 ± 0.4 mM and the catalytic constant (kcat) was found to be 0.44 ± 0.01 s⁻¹.

These data come from publication PMC4511154 (Journal of molecular microbiology and biotechnology, 2015).
